From US20060173064A1, “(-)-1-(3,4-Dichlorophenyl)-3-azabi cyclo[3.1.0]hexane, compositions thereof, and uses for treating alcohol-related disorders” (priority 2001, published 2006)
Marks after values point to notes of the source that are not given here.

Legend:
[1] = target: norepinephrine transporter (norepinephrine uptake site), rat forebrain membranes (Rattus norvegicus, UniProt Q63380); conditions: Table 2; hydrochloride
Description: The norepinephrine transporter binding assay was performed according to the methods described in Raisman et al., 1982, Eur. J. Pharmacol. 78:345-351 and Langer et al., 1981, Eur. J. Pharmacol. 72:423. […] Reactions were carried out in 50 mM TRIS-HCI (pH 7.4), containing 300 mM NaCl and 50 mM KCl and at 0° C. to 4° C. for four hours. The reaction was terminated by rapid vacuum filtration onto glass fiber filters. Radioactivity trapped in the filters was determined and compared to control values in order to ascertain the interactions of the test compound with the norepinephrine uptake site.

[2] = target: T1, serotonin transporter (serotonin uptake site), human platelet membranes (Homo sapiens, UniProt P31645); assay: Serotonin transporter binding assay ([3H]citalopram); conditions: summary of Table 3; hydrochloride
T1 construct: The receptor source was human platelet membranes; from tissue; host or cells: human platelets (membranes)
Description: Reactions were carried out in 50 mM TRIS-HCl (pH 7.4), containing 120 mM NaCl and 5 mM KCl and at 25° C. for one hour. The reaction was terminated by rapid vacuum filtration onto glass fiber filters. Radioactivity trapped in the filters was determined and compared to control values in order to ascertain the interactions of the test compound with the serotonin uptake site.

[3] = target: T2, dopamine transporter (dopamine uptake site), guinea pig striatal membranes (Cavia porcellus, UniProt H0WCX4); assay: Dopamine transporter binding assay ([3H]WIN 35,428); conditions: summary of Table 1
T2 construct: The receptor source was guinea pig striatal membranes; from tissue; host or cells: guinea pig striatum (membranes)
Description: The dopamine uptake transporter binding assay was performed according to the methods described in Madras et al., 1989, Mol. Pharmacol. 36(4):518-524 and Javitch et al., 1984, Mol. Pharmacol. 26(1):35-44. […] Reactions were carried out in 50 mM TRIS-HCI (pH 7.4), containing 120 mM NaCl and at 0° C. to 4° C. for two hours. The reaction was terminated by rapid vacuum filtration onto glass fiber filters. Radioactivity trapped in the filters was determined and compared to control values in order to ascertain the interactions of the test compound with the dopamine uptake site.

[4] = target: hSERT (recombinant human serotonin transporter) (Homo sapiens, UniProt P31645); assay: Inhibition of [3H]5-HT uptake in HEK-hSERT cells; conditions: (−)-enantiomer versus the racemate
[5] = test system: male mHEP rat; assay: Volitional consumption of ethanol in the HEP (high ethanol preferring) rat; format: in vivo; conditions: for Ethanol Consumption, Mean ± s.e.m., pre-: three-day pre-treatment period (baseline); for Ethanol Consumption, Mean ± s.e.m., pre- / Ethanol Consumption, Mean ± s.e.m., during / Ethanol Consumption, Mean ± s.e.m., post-: male mHEP rat; for Ethanol Consumption, Mean ± s.e.m., during: during three days of injections; for Ethanol Consumption, Mean ± s.e.m., post-: three-day post-treatment period
Description: (§1) The study described here was performed using procedures modified from previous reports (Myers R D et al., Genetics of alcoholism: Rapid development of a new high ethanol preferring (HEP) strain of female and male rats, Alcohol 16:343-357, 1998; […] et al., Effects of NMDA glutamate receptor antagonist drugs on the consumption of ethanol by a genetic drinking rat, Brain Res. Bull 64:279-284, 2004). Briefly, subject male rats were taken from the selectively bred Myers' high ethanol preferring (MHEP) line (Myers et al., Alcohol 16:343-357, 1998), which drink copious amounts of ethanol, even in the presence of palatable alternatives. These rats were subjected to an ethanol preference selection protocol, 3% to 30% during a 10-day “step up” procedure that ensures the maximum amount of drinking at each rat's desired ethanol concentration, with the proportion of ethanol to total fluid consumption of approximately 50%. After the rats were selected and drinking a fixed concentration of ethanol, they were subjected to a three-day baseline ethanol consumption period. This was followed by a three-day period of test drug administration (IP), then a three-day post-treatment period. During this entire study, the following parameters were measured on a daily basis: volume of water consumed; volume of ethanol solution consumed; weight of food consumed; and rat body weight. […] Doses were calculated as the free base form of each drug. Once drinking stabilized to baseline levels post-treatment, a different dose of drug was administered. […] The order of drug doses or vehicle (0.9% saline) was set up in a counter-balanced design. The data were averaged for each period for each rat then grouped and analyzed by one-way repeated measures ANOVA and Tukey's post-hoc analysis.

[6] = Body weight of the mHEP rat in the ethanol study; format: in vivo; conditions: for Bodyweight, Mean ± s.e.m., pre-: three-day pre-treatment period (baseline); for Bodyweight, Mean ± s.e.m., pre- / Bodyweight, Mean ± s.e.m., during / Bodyweight, Mean ± s.e.m., post-: male mHEP rat; for Bodyweight, Mean ± s.e.m., during: during three days of injections; for Bodyweight, Mean ± s.e.m., post-: three-day post-treatment period
Description: as §1

T2 sequence (H0WCX4 1-619): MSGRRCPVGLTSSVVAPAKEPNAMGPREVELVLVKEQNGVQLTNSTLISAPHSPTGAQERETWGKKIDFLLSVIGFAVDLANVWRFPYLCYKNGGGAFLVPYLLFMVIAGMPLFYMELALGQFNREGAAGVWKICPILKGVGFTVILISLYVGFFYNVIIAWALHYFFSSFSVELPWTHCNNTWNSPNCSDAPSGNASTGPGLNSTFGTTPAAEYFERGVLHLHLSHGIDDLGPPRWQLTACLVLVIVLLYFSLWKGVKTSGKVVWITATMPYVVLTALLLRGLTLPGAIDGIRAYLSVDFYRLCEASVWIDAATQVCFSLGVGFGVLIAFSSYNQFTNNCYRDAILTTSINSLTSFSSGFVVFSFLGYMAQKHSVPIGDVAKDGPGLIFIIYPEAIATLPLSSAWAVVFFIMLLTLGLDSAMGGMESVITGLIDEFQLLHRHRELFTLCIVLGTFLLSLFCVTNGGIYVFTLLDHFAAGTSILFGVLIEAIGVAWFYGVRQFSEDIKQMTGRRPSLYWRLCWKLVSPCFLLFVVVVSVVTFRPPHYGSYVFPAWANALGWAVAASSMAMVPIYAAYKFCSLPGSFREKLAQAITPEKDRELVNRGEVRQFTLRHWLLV
T1 sequence (P31645 whole entry): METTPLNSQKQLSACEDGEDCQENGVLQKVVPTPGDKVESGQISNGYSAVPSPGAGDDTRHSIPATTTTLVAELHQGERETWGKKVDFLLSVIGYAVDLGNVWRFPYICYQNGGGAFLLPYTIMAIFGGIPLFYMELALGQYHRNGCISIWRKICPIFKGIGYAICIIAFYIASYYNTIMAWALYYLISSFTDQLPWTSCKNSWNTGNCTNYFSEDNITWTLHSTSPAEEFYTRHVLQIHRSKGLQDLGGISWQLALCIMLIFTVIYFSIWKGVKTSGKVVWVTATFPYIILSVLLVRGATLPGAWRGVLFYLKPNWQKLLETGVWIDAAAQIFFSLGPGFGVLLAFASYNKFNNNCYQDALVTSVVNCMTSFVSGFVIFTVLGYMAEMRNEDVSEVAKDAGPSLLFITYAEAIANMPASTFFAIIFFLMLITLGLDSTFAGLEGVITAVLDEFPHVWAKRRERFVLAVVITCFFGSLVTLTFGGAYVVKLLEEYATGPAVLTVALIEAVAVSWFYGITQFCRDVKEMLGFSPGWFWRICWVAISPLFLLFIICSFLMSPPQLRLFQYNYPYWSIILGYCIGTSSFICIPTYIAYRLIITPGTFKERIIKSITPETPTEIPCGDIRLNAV
Sequence of norepinephrine transporter (norepinephrine uptake site), rat forebrain membranes (Q63380 1-617): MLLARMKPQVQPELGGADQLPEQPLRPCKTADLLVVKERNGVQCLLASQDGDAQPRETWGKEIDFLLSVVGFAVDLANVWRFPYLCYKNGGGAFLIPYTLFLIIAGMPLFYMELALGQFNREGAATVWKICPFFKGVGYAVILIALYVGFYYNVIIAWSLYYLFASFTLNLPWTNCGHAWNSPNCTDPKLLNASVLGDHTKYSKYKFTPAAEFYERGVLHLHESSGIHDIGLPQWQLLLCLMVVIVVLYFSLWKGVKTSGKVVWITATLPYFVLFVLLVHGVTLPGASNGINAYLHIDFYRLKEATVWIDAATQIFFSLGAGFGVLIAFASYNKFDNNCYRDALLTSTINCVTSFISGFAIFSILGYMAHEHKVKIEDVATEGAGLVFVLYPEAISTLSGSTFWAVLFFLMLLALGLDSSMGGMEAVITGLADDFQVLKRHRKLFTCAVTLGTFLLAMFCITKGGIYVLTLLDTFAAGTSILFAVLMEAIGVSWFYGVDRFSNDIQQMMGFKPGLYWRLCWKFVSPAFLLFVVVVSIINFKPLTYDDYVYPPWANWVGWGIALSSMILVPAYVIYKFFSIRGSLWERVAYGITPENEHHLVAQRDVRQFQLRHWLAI
Sequence of hSERT (recombinant human serotonin transporter) (P31645 whole entry): as the sequence (P31645 whole entry) above

## Cl.Clc1ccc([C@@]23CNC[C@@H]2C3)cc1Cl (single isomer, unassigned) [(+)-1-(3,4-dichlorophenyl)-3-azabicyclo[3.1.0]hexane HCl] [(+)-1-(3,4-dichlorophenyl)-3-azabicyclo[3.1.0]hexane hydrochloride, reference compound]
[1]
  affinity for the norepinephrine uptake site (in words): has affinity
[2]
  affinity for the serotonin uptake site (in words): has affinity

## Cl.Clc1ccc([C@@]23CNC[C@@H]2C3)cc1Cl (single isomer, unassigned) [(+)-1-(3,4-dichlorophenyl)-3-azabicyclo[3.1.0]hexane hydrochloride, reference compound]
[3]
  affinity for the dopamine uptake site (in words): have affinity

## Cl.Clc1ccc([C@@]23CNC[C@@H]2C3)cc1Cl (single isomer, unassigned) [(−)-1-(3,4-dichlorophenyl)-3-azabicyclo[3.1.0]hexane HCl] [(−)-1-(3,4-dichlorophenyl)-3-azabicyclo[3.1.0]hexane hydrochloride]
[1]
  affinity for the norepinephrine uptake site (in words): no measurable affinity
[2]
  affinity for the serotonin uptake site (in words): no measurable affinity
[4]
  difference in affinity, uptake at the serotonin transporter: 9.6 fold

## Cl.Clc1ccc([C@@]23CNC[C@@H]2C3)cc1Cl (single isomer, unassigned) [(−)-1-(3,4-dichlorophenyl)-3-azabicyclo[3.1.0]hexane hydrochloride]
[3]
  affinity for the dopamine uptake site (in words): have affinity
[5]; 2.5 mg/kg b.i.d. IP group
  Ethanol Consumption, Mean ± s.e.m., pre-: 5.39 ± 0.89 g ethanol/kg/day
[5]; 2.5 mg/kg b.i.d. IP
  Ethanol Consumption, Mean ± s.e.m., during: 4.32 ± 0.69 g ethanol/kg/day
  Ethanol Consumption, Mean ± s.e.m., post-: 5.79 ± 0.86^a g ethanol/kg/day
[5]; 5.0 mg/kg b.i.d. IP group
  Ethanol Consumption, Mean ± s.e.m., pre-: 6.00 ± 0.59 g ethanol/kg/day
[5]; 5.0 mg/kg b.i.d. IP
  Ethanol Consumption, Mean ± s.e.m., during: 4.33 ± 0.62 g ethanol/kg/day
  Ethanol Consumption, Mean ± s.e.m., post-: 5.66 ± 0.64 g ethanol/kg/day
[5]; 10.0 mg/kg b.i.d. IP group
  Ethanol Consumption, Mean ± s.e.m., pre-: 6.77 ± 0.51 g ethanol/kg/day
[5]; 10.0 mg/kg b.i.d. IP
  Ethanol Consumption, Mean ± s.e.m., during: 3.50 ± 0.45 g ethanol/kg/day
  Ethanol Consumption, Mean ± s.e.m., post-: 4.15 ± 0.61 g ethanol/kg/day
[5]; 10 mg/kg b.i.d., post-treatment period
  effect on ethanol consumption during the post-treatment period (in words): significant carry over effect
[5]; 20.0 mg/kg b.i.d. IP group
  Ethanol Consumption, Mean ± s.e.m., pre-: 5.26 ± 0.49 g ethanol/kg/day
[5]; 20.0 mg/kg b.i.d. IP
  Ethanol Consumption, Mean ± s.e.m., during: 1.80 ± 0.28 g ethanol/kg/day
  Ethanol Consumption, Mean ± s.e.m., post-: 2.89 ± 0.45 g ethanol/kg/day
[5]; 20 mg/kg b.i.d., after treatment
  decrease in the proportion of alcohol consumed (volume of ethanol / total volume of ethanol solution and water): 41%
[5]; 20 mg/kg b.i.d., during treatment
  decrease in the proportion of alcohol consumed (volume of ethanol / total volume of ethanol solution and water): 62.3%
[5]; 20 mg/kg b.i.d., post-treatment period
  ethanol consumption depressed compared to the pre-treatment period: 55.1%
[5]; 20 mg/kg b.i.d., treatment period
  decrease in ethanol consumption compared to the pre-treatment period: 65.8%
[5]; across doses, mHEP rat
  amount of ethanol consumed (in words): strong dose-dependent decrease in consumption
[5]; dose range of 5.0 to 20 mg/kg b.i.d.
  volitional consumption of ethanol (in words): significantly reduced
[5]; mHEP rat
  proportion of ethanol consumed (in words): strong decrease
[6]; 2.5 mg/kg b.i.d. IP group
  Bodyweight, Mean ± s.e.m., pre-: 0.369 ± 0.019 kg
[6]; 2.5 mg/kg b.i.d. IP
  Bodyweight, Mean ± s.e.m., during: 0.372 ± 0.019 kg
  Bodyweight, Mean ± s.e.m., post-: 0.373 ± 0.019 kg
[6]; 5.0 mg/kg b.i.d. IP group
  Bodyweight, Mean ± s.e.m., pre-: 0.392 ± 0.009 kg
[6]; 5.0 mg/kg b.i.d. IP
  Bodyweight, Mean ± s.e.m., during: 0.394 ± 0.009 kg
  Bodyweight, Mean ± s.e.m., post-: 0.394 ± 0.007 kg
[6]; 10.0 mg/kg b.i.d. IP group
  Bodyweight, Mean ± s.e.m., pre-: 0.381 ± 0.028 kg
[6]; 10.0 mg/kg b.i.d. IP
  Bodyweight, Mean ± s.e.m., during: 0.381 ± 0.028 kg
  Bodyweight, Mean ± s.e.m., post-: 0.382 ± 0.028 kg
[6]; 20.0 mg/kg b.i.d. IP group
  Bodyweight, Mean ± s.e.m., pre-: 0.421 ± 0.015 kg
[6]; 20.0 mg/kg b.i.d. IP
  Bodyweight, Mean ± s.e.m., during: 0.423 ± 0.015 kg
  Bodyweight, Mean ± s.e.m., post-: 0.418 ± 0.015^a kg
[6]; treated rats, as expected for rats of this age
  body weight (in words): small increases in body weight
